From patent US20120077863A1, “GUANIDINO-SUBSTITUTED BI-AND POLYPHENYLS AS SMALL MOLECULE CARRIERS” (UCL Business PLC, priority 2009, published 2012)
pKd: −log10 of the molar value.

Target: GAPD siRNA
Experiment: Isothermal calorimetry (ITC) binding of SMOC to siRNA
Settings: 6G-SMOC 250 μM in syringe, siRNA 3.5 μM in cell, FIG. 2
Protocol: An isothermal calorimetry experiment (ITC) was carried out to analyse the strength of the binding between the 6G-SMOG compound shown below and siRNA targeted to the […].
6G-SMOC at a concentration of 250 μM was loaded into the syringe of a Microcal VP-ITC calorimeter (450 μl), and the cell (1.8 ml) filled with GAPD siRNA (Dharmacon RNAi Technologies) at a concentration of 3.5 μM. A total of 37 injections of 8 μl each were made at 4 minute intervals to ensure total saturation of the siRNA. The binding curve was plotted using Origin 6.0 (Microcal) and the binding constants calculated.

N=C(N)NCCOc1cccc(-c2ccc(-c3cccc(OCCNC(=N)N)c3OCCNC(=N)N)c(OCCNC(=N)N)c2OCCNC(=N)N)c1OCCNC(=N)N [6G-SMOC]
pKd: ~4.10
